Laboratory results reported in PMC7290497, “Tubulin Resists Degradation by Cereblon-Recruiting PROTACs” (Cells, 2020).
“Also recorded” adds a separate entry of the source. Like-named read-outs stand apart in the source and are kept apart here. Square brackets hold non-standard residues; d marks the D form. Peptide text beside a SMILES is read from it. * marks the point of attachment. Dolaproine = CO[C@@H]([C@@H]1CCCN1)[C@@H](C)C(=O)O; X1 = O=C1CCC(N2C(=O)c3cccc(*)c3C2=O)C(=O)N1; Dil = CC[C@H](C)[C@H](NC)[C@@H](CC(=O)O)OC; X2 = C[C@@H](N*)[C@@H](O)c1ccccc1; NMeV = CN[C@H](C(=O)O)C(C)C; 12Ado = NCCCCCCCCCCCC(=O)O

How the values were obtained:
CRBN = biological target: T1, CRBN (Homo sapiens, UniProt Q96SW2); assay: Competitive displacement assay for cellular CRBN engagement (rescue of dBET6-mediated BRD4BD2-eGFP degradation, mCherry reporter cells); format: cell-based
T1 construct: Quantitative assessment of intracellular CRBN engagement; endogenous in cells; host or cells: Flp293T-based BRD4BD2-GFP mCherry reporter cell line
Description: (§1) The human telomerase reverse transcriptase immortalized retinal pigment epithelium 1 (hTert-RPE1) cell line used in this study was grown at 37 °C with 5% CO2 in a humidified incubator. Cells were grown in Dulbecco’s modified medium (nutrient mixture F12, DMEM/F12) supplemented with 10% fetal bovine serum, and 1% (v:v) penicillin/streptomycin (pen/strep). The Flp293T-based BRD4BD2-GFP mCherry reporter cell line was grown in DMEM supplemented with 10% FBS. The synthesized small molecules and the parental microtubule poisons were dissolved in DMSO; 0.01% DMSO was used as vehicle control.
Supplementary Figure S3. MMAE-CRBN compounds engage CRBN in cells. Quantitative assess-ment of intracellular CRBN engagement using a BRD4BRD2-eGFP-mCherry reporter assay. CRBN engagement was assessed by monitoring rescue of dBET6-mediated degradation of BRD4BRD2-eGFP.
Cells stably expressing BRD4BRD2-eGFP and mCherry were treated with 100 nM of dBET6, a specific degrader of BRD4BRD2, and increasing concentrations of the candidate tubulin degraders. The eGFP and mCherry signals were quantified by laser scanning cytometry and the concentration of compound that rescued 50% of BRD4BRD2-eGFP fluorescence (EC50) was determined by nonlinear regression. Data from n=2 biological replicates. Error bars represent standard deviation of the mean. CPD – compound with […]
(also on this page, place not known: BRD4 BRD2-eGFP-mCherry (BJG-02-095)1 100Relative abundance 100Relative abundance 100Relative abundance) […]
Supplementary Figure S6. CA4-CRBN compounds engage CRBN in cells. Quantitative assessment of intracellular CRBN engagement using a BRD4BRD2-eGFP-mCherry reporter assay. CRBN engage-ment was assessed by monitoring rescue of dBET6-mediated degradation of BRD4BRD2-eGFP. Cells stably expressing BRD4BRD2-eGFP and mCherry were treated with 100 nM of dBET6, a specific degrad-er of BRD4BRD2, and increasing concentrations of the candidate tubulin degraders. The eGFP and […]
(also on this page, place not known: BRD4 BRD2-eGFP. (BJG-02-158)10 Relative abundance 100Relativeabundance) […]
3. Competitive displacement assay for cellular CRBN engagement
Cells stably expressing the BRD4BD2-GFP with mCherry reporter were seeded at 30-50% confluency in 384-well plates with 50 µL FluoroBrite DMEM media (Thermo Fisher Scientific A18967) containing 10% FBS per well a day before compound treatment. Compounds and 100 nM dBET6 were dispensed using a D300e Digital Dispenser (HP), normalized to 0.5% DMSO, and incubated with cells for 5 hours. The assay plate was imaged immediately using an Acumen High Content Imager (TTP Labtech) with 488 nm and 561 nm lasers in 2 µm x 1 µm grid per well format. The resulting images were analyzed using CellProfiler.
A series of image analysis steps (‘image analysis pipeline’) was constructed. First, the red and green channels were aligned and cropped to target the middle of each well (to avoid analysis of heavily clumped cells at the edges), and a background illumination function was calculated for both red and green channels of each well individually and subtracted to correct for illumination variations across the 384-well plate from various sources of error. An additional step was then applied to the green channel to suppress the analysis of large auto fluorescent artifacts and enhance the analysis of cell specific fluorescence by way of selecting for objects under a given size, 30 A.U., and with a given shape, speckles. mCherry-positive cells were then identified in the red channel filtering for objects between 8-60 pixels in diameter and using intensity to distinguish between clumped objects. The green channel was then segmented into GFP positive and negative areas and objects were labeled as GFP positive if at least 40% of it overlapped with a GFP positive area. The fraction of GFP-positive cells/mCherry-positive cells in each well was then calculated, and the green and red images were rescaled for visualization. The values for the concentrations that lead to a 50% […]

[1] = test system: α-tubulin (TUBA) and β-tubulin (TUBB) in hTert-RPE1 cells; assay: Western blot of tubulin protein levels (tubulin degradation) in whole-cell extracts; format: cell-based, human; conditions: for degradation of tubulin (TUBA and TUBB protein levels, Western blot): normalized to ACTB and DMSO; for tubulin degradation in time-course experiment: five hours, data not shown
Description: as §1
Whole-cell extracts for immunoblot analysis were prepared by cell lysis in 2× SDS sample buffer composed of 50 mM Tris-HCl pH 6.8, 2% SDS, 10% glycerol, 143 mM β-mercaptoethanol, 12.5 mM EDTA, and 0.02% bromophenol blue in water. Samples were denatured at 100 °C for 10 min and then subjected to SDS-PAGE gel electrophoresis on 1.5 mm NuPAGE Novex 4–12% Bis-Tris Protein Gels (Thermo Fisher Scientific, Waltham, MA, USA), using the Mini Trans-Blot Cell system (BioRad, Hercules, CA, USA).
(§2) The Precision Plus Protein Dual Color Standard ladder was used for all immunoblots (BioRad, USA). Primary antibodies were diluted: 1:5000 beta-actin (Cell Signaling Technologies, Danvers, MA, USA, #4970), 1:15000 GAPDH (Cell Signaling Technologies, #2118), 1:10000 alpha-tubulin (DM1alpha, Millipore, Burlington, MA, USA, #05-829), and 1:5000 beta-tubulin (Cell Signaling Technologies, # 2128). Secondary antibodies were diluted: 1:15000 goat anti-mouse DyLight 680 conjugated (Thermo Fisher Scientific, #35518), 1:15000 goat anti-rabbit DyLight 800 conjugated (Thermo Fisher Scientific, #35571). The Odyssey Infra-Red Imaging System (LI-COR, Lincoln, NE, USA) equipped with the Image Studio software was used to image and analyze immunoblots. Data plotting and statistical analysis were carried out in Microsoft Excel (Redmond, WA, USA) and R (Vienna, Austria).
As positive controls, we prepared two of the literature molecules, T007-1 and a related T138067 (Figure 2A). We modified the originally reported synthesis of T007-1, instead using 2-chloro-5-nitrobenzoyl chloride, as the reported dicyclohexyl carbodiimide (DCC) coupling with 2-chloro-5-nitrobenzoic acid led to inseparable mixtures of mono- and diacylation (See Supplementary Material for full details). We treated human retinal pigment epithelium 1 (hTert-RPE1) cells, a widely used cell model, with T007-1 and T138067 degraders at a range of concentrations from 5 nM to 10 μM. Prolonged compound treatment was expected to cause activation of the spindle assembly checkpoint and an arrest in the mitotic stage of the cell cycle, which could have an effect on tubulin levels independently of tubulin degradation. To exclude this possibility, we used contact-inhibited quiescent cells (hTert-RPE1 cells stop proliferating at high growth density). In addition, to minimize the probability that some cells escape the cell cycle arrest and continue to proliferate, we opted for a short 5 h treatment of cells with the compounds, which was previously reported to be sufficient to degrade tubulin [35]. […] Therefore, as previously reported, this series of compounds led to degradation of tubulin and a global decrease of both soluble and polymerized tubulin levels.

[2] = test system: microtubule cytoskeleton in hTert-RPE1 cells; assay: Biochemical partitioning of tubulin into soluble (S) and polymerized (P) fractions; format: cell-based, human; conditions: 1 μM, 5 h
Description: as §1
For tubulin partitioning into soluble and polymerized fractions, cells were grown in 12-well dishes at 70–80% confluence. Cells were gently washed with PBS pre-warmed to 37 °C. Soluble tubulin was extracted by incubating cells in 300 µL of tubulin extraction buffer containing 60 mM PIPES (pH 6.8), 25 mM HEPES (pH 7.2), 10 mM EGTA (pH 7–8), 2 mM MgCl2, 0.5% TritonX-100, 10 µM Paclitaxel (Sigma Aldrich, St. Louis, MO USA), and a protease inhibitor tablet (Roche, Branchburg, NJ, USA) for 2 min at room temperature. The extraction buffer with soluble protein was collected and mixed with 100 µL 4× SDS sample buffer. The remaining material containing polymerized tubulin was then collected by adding 400 µL 1× SDS sample buffer and scraping the dish. All samples were denatured at 100 °C for 10 min. Equal aliquots of samples were further concentrated two-fold by evaporation at 100 °C for 3–5 min immediately prior to SDS-PAGE gel electrophoresis.
as §2

[3] = hTert-RPE1 cells, 5 nM to 10 μM, 5 h
[4] = IC50, intracellular CRBN engagement (rescue of 50% of BRD4BRD2-eGFP fluorescence), Supplementary Figures S3 and S6, 100 nM dBET6, n=2 biological replicates

CC[C@H](C)[C@@H]([C@@H](CC(=O)N1CCC[C@H]1[C@H](OC)[C@@H](C)C(=O)N[C@H](C)[C@@H](O)c1ccccc1)OC)N(C)C(=O)[C@@H](NC(=O)[C@H](C(C)C)N(C)C(=O)CCCCCCCCCCCNc1cccc2c1C(=O)N(C1CCC(=O)NC1=O)C2=O)C(C)C (stereo partly shown) [Compound 3] ({X1-12Ado}-[NMeV]V[Dil][Dolaproine]-X2)
CRBN engagement / CRBN binding in cells (in words) (CRBN; 100 nM dBET6, 5 hours): very weak CRBN engagement | IC50 (CRBN; 100 nM dBET6, 5 hours, read-out: IC50, cellular CRBN engagement): ~10000 nM | degradation of tubulin (TUBA and TUBB protein levels, Western blot) [1, 3]: no degradation | microtubule destabilization (soluble S vs polymerized P fraction of tubulin) [2]: microtubule destabilization

CC[C@H](C)[C@@H]([C@@H](CC(=O)N1CCC[C@H]1[C@H](OC)[C@@H](C)C(=O)N[C@H](C)[C@@H](O)c1ccccc1)OC)N(C)C(=O)[C@@H](NC(=O)[C@H](C(C)C)N(C)CCOCCOCCOCCNc1cccc2c1C(=O)N(C1CCC(=O)NC1=O)C2=O)C(C)C (stereo partly shown) [Compound 5]
IC50 (CRBN; [4]): 467 nM

COc1ccc(NS(=O)(=O)c2c(F)c(F)c(F)c(F)c2F)cc1F [Compound T138067]
tubulin degradation in time-course experiment [1]: efficiently degrade tubulin | degradation of tubulin (TUBA and TUBB protein levels, Western blot) [1, 3]: decrease in tubulin levels | microtubule destabilization (soluble S vs polymerized P fraction of tubulin) [2]: both the S and the P fraction of tubulin decrease

COc1ccc(/C=C\c2cc(OC)c(OC)c(OC)c2)cc1OCCOCCOCCOCCOCCOCCNc1cccc2c1C(=O)N(C1CCC(=O)NC1=O)C2=O (stereo not shown) [Compound 12]
cell permeability as judged by the cellular CRBN engagement assay (CRBN): cell permeable | IC50 (CRBN; [4]): 655 nM

COc1ccc(/C=C\c2cc(OC)c(OC)c(OC)c2)cc1OCCOCCOCCOCCOCCNc1cccc2c1C(=O)N(C1CCC(=O)NC1=O)C2=O (stereo not shown) [Compound 11]
cell permeability as judged by the cellular CRBN engagement assay (CRBN): cell permeable | IC50 (CRBN; [4]): 572 nM

COc1ccc(/C=C\c2cc(OC)c(OC)c(OC)c2)cc1OCCOCCOCCOCCNc1cccc2c1C(=O)N(C1CCC(=O)NC1=O)C2=O (stereo not shown) [Compound 10]
cell permeability as judged by the cellular CRBN engagement assay (CRBN): cell permeable | IC50 (CRBN; [4]): 1480 nM

COc1ccc(/C=C\c2cc(OC)c(OC)c(OC)c2)cc1NCCOCCOCCOCCOCCNc1cccc2c1C(=O)N(C1CCC(=O)NC1=O)C2=O (stereo not shown) [Compound 13]
CRBN engagement / CRBN binding in cells (in words) (CRBN; 100 nM dBET6, 5 hours): efficient binding to CRBN | IC50 (CRBN; Supplementary Figures S3 and S6, 100 nM dBET6, n=2 biological replicates, read-out: IC50, intracellular CRBN engagement (rescue of 50% of BRD4BRD2-eGFP fluorescence)): 3720 nM | degradation of tubulin (TUBA and TUBB protein levels, Western blot) [1, 3]: unsuccessful in degrading tubulin | microtubule destabilization (soluble S vs polymerized P fraction of tubulin) [2]: no microtubule-destabilizing activity

O=C(Nc1ccnc(NCc2cccc(Oc3ccccc3)c2)c1)c1cc([N+](=O)[O-])ccc1Cl [Compound T007-1]
tubulin degradation in time-course experiment [1]: efficiently degrade tubulin | potency in decreasing tubulin levels, T007-1 compared with T138067 [1, 3]: significantly more potent | degradation of tubulin (TUBA and TUBB protein levels, Western blot) [1, 3]: decrease in tubulin levels | microtubule destabilization (soluble S vs polymerized P fraction of tubulin) [2]: decreased levels of both soluble (S) and polymerized (P) fractions of tubulin; also recorded: both the S and the P fraction of tubulin decrease

CC[C@H](C)[C@@H]([C@@H](CC(=O)N1CCC[C@H]1[C@H](OC)[C@@H](C)C(=O)N[C@H](C)[C@@H](O)c1ccccc1)OC)N(C)C(=O)[C@@H](NC(=O)[C@H](C(C)C)N(C)CCOCCOCCOCCOCCOCCNc1cccc2c1C(=O)N(C1CCC(=O)NC1=O)C2=O)C(C)C (stereo partly shown) [Compound 6]
IC50 (CRBN; [4]): 440 nM

CC[C@H](C)[C@@H]([C@@H](CC(=O)N1CCC[C@H]1[C@H](OC)[C@@H](C)C(=O)N[C@H](C)[C@@H](O)c1ccccc1)OC)N(C)C(=O)[C@@H](NC(=O)[C@H](C(C)C)N(C)CCOCCOCCOCCOCCNc1cccc2c1C(=O)N(C1CCC(=O)NC1=O)C2=O)C(C)C (stereo partly shown) [Compound 1]
cell permeability as judged by the cellular CRBN engagement assay (CRBN): cell-permeable | IC50 (CRBN; IC50, cellular CRBN engagement, 100 nM dBET6, 5 hours): 342 nM | IC50 (CRBN; [4]): 342 nM | degradation of tubulin (TUBA and TUBB protein levels, Western blot) [1, 3]: no degradation | microtubule destabilization (soluble S vs polymerized P fraction of tubulin) [2]: microtubule destabilization
